Source: patent US20140220110A1, “REMOTE LOADING OF SPARINGLY WATER-SOLUBLE DRUGS INTO LIPOSOMES” (ZONEONE PHARMA, INC., priority 2013, published 2014)
Converted amounts (≈) assume the structure as drawn.

Columns and labels:
[1] = Remote loading of doxorubicin and 17-DMAG into ammonium sulfate liposomes with and without 25% DMSO; type: physicochemical; conditions: ammonium sulfate containing liposomes
Excerpt: To test the integrity of the liposomes in 25% DMSO we attempted to remote load the water-soluble weak base drugs doxorubicin and 17-dimethylaminoethylamino-17-demethoxygeldanamycin (17-DMAG) and compared to the same loading without DMSO.

[2] = cited from earlier work
[3] = Remote loading of aripiprazole precipitate into liposomes; type: physicochemical
Procedure: Liposomes (HSPC/Chol/PEG-DSPE 3/2/0.15 mol/mol/mol) containing 250 mM ammonium sulfate or 250 mM sodium sulfate were diluted in 1 mL of 50 mM citric acid, 10% (wt/wt) sucrose, pH 4.0 to a concentration of 6 mM phospholipid. […] Fine precipitates were immediately observed after the drug was added to both liposome samples. The samples were heated at 65° C. for 30 min, the cooled on ice. The samples were filtered through a 0.2 um polyethersulfone syringe filter to remove any drug precipitates, followed by purification on a Sephadex G25 column equilibrated with HBS, pH 6.5 to remove any soluble extraliposome drug. The turbid fraction was collected and analyzed for lipid and drug as described above.

Water solubility = type: physicochemical

In the case of `COc1cccc2c1C(=O)c1c(O)c3c(c(O)c1C2=O)C[C@@](O)(C(=O)CO)C[C@@H]3O[C@H]1C[C@H](N)[C@H](O)[C@H](C)O1` [doxorubicin], the “% Efficiency compared to control of no DMSO” value [1] is reported as 92.7 ± 0.43%.

For `O=C(O)c1ccc(-n2nc(-c3ccccc3O)nc2-c2ccccc2O)cc1` [deferasirox], the water solubility [2] is listed as ~38 µg/mL (≈ 102 µM).

In the case of `CO[C@H]1/C=C\C=C(/C)C(=O)NC2=CC(=O)C(NCCN(C)C)=C(C[C@@H](C)C[C@H](OC)[C@H](O)[C@@H](C)/C=C(\C)[C@@H]1OC(N)=O)C2=O` [Formulation 17-DMAG, 17-dimethylaminoethylamino-17-demethoxygeldanamycin], the “% Efficiency compared to control of no DMSO” value [1] is reported as 73.1 ± 1.4%.

For `O=C1CCc2ccc(OCCCCN3CCN(c4cccc(Cl)c4Cl)CC3)cc2N1` [aripiprazole], the “Output D/L” value ([3]; (NH4)2SO4 liposomes, input D/L 50 ug/umol) was 42.28 ± 0.49 µg/µmol, the “Output D/L” value ([3]; (Na)2SO4 liposomes, input D/L 50 ug/umol) was 0.86 ± 0.51 µg/µmol and the loading efficiency ([3]; drug introduced as SBCD complex (from Abilify), same concentration and loading conditions) was 68%. For the same compound, the “Fold Increase NH4SO4/NaSO4” value ([3]; input D/L 50 ug/umol) was 49.3 and the solubility in water (Water solubility) was “very insoluble in water”.
